Key:
Assay in all cases: relative viability (nuclei count vs DMSO), 5 days (fraction); higher = more cells survive
[1] = system: NCI-H460
Summary of the method: (§1)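 Values are medians from duplicate plates. Each reflects relative viability, defined as the nuclei count of treated wells over that of vehicle wells. Lung cancer cell lines in 1536-well plates were pin-tool dosed one day after seeding with one drug alone or with a fixed anchor-drug dose plus five library-drug doses (not always all listed) in √10 steps, then fixed, stained and imaged at 4× after 5 days.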

[2] = system: NCI-H1975
Summary of the method: as §1

[3] = system: NCI-H2126
Summary of the method: as §1

[4] = system: NCI-H596
Summary of the method: as §1

[5] = system: NCI-H727
Summary of the method: as §1

[6] = system: NCI-H2085
Summary of the method: as §1

[7] = system: LCLC-103H
Summary of the method: as §1

[8] = system: LOU-NH91
Summary of the method: as §1

[9] = system: RERF-LC-KJ
Summary of the method: as §1

[10] = system: HARA
Summary of the method: as §1

[11] = system: NCI-H838
Summary of the method: as §1

[12] = system: NCI-H1734
Summary of the method: as §1

[13] = system: CAL-12T
Summary of the method: as §1

[14] = system: A-427
Summary of the method: as §1

[15] = system: NCI-H647
Summary of the method: as §1

[16] = system: NCI-H1944
Summary of the method: as §1

[17] = system: BEN
Summary of the method: as §1

[18] = system: ABC-1
Summary of the method: as §1

[19] = system: NCI-H1666
Summary of the method: as §1

[20] = system: NCI-H520
Summary of the method: as §1

[21] = system: SW 900
Summary of the method: as §1

[22] = system: NCI-H661
Summary of the method: as §1

[23] = system: NCI-H1651
Summary of the method: as §1

With `CN1CCN(CCOc2cc(OC3CCOCC3)c3c(Nc4c(Cl)ccc5c4OCO5)ncnc3c2)CC1` [Saracatinib] + COc1cc2c(Oc3ccc(NC(=O)C4(C(=O)Nc5ccc(F)cc5)CC4)cc3F)ccnc2cc1OCCCN1CCOCC1 [Foretinib] (partner 0.25 µM) the relative viability ([1]; first compound 0.02 µM) was 1.02, the relative viability ([1]; first compound 0.2 µM) was 0.882 and the relative viability ([1]; first compound 0.6325 µM) was 1.06. For the same compound, the relative viability ([1]; first compound 2 µM) was 0.867, the relative viability ([2]; first compound 0.02 µM) was 0.956 and the relative viability ([2]; first compound 0.2 µM) was 0.85. For the same compound, the relative viability ([2]; first compound 0.6325 µM) was 0.96, the relative viability ([2]; first compound 2 µM) was 0.631 and the relative viability ([3]; first compound 0.02 µM) was 1.15. The relative viability ([3]; first compound 0.2 µM) was 1.22, the relative viability ([3]; first compound 0.6325 µM) was 1.17 and the relative viability ([3]; first compound 2 µM) was 1.07. The relative viability ([4]; first compound 0.02 µM) was 0.874, the relative viability ([4]; first compound 0.2 µM) was 0.641 and the relative viability ([4]; first compound 0.6325 µM) was 0.826. The relative viability ([4]; first compound 2 µM) was 0.591, the relative viability ([5]; first compound 0.02 µM) was 0.814 and the relative viability ([5]; first compound 0.2 µM) was 1.04. For the same compound, the relative viability ([5]; first compound 0.6325 µM) was 0.923, the relative viability ([5]; first compound 2 µM) was 0.553 and the relative viability ([6]; first compound 0.02 µM) was 0.986. The relative viability ([6]; first compound 0.2 µM) was 0.839, the relative viability ([6]; first compound 0.6325 µM) was 0.751 and the relative viability ([6]; first compound 2 µM) was 0.668. It also gave a relative viability ([7]; first compound 0.02 µM) of 0.698, a relative viability ([7]; first compound 0.2 µM) of 0.669 and a relative viability ([7]; first compound 0.6325 µM) of 0.742. The relative viability ([7]; first compound 2 µM) was 0.572, the relative viability ([8]; first compound 0.02 µM) was 0.867 and the relative viability ([8]; first compound 0.2 µM) was 0.661. The relative viability ([8]; first compound 0.6325 µM) was 0.609, the relative viability ([8]; first compound 2 µM) was 0.488 and the relative viability ([9]; first compound 0.02 µM) was 0.895. For the same compound, the relative viability ([9]; first compound 0.2 µM) was 0.855, the relative viability ([9]; first compound 0.6325 µM) was 0.917 and the relative viability ([9]; first compound 2 µM) was 0.877. For the same compound, the relative viability ([10]; first compound 0.02 µM) was 0.873, the relative viability ([10]; first compound 0.2 µM) was 0.751 and the relative viability ([10]; first compound 0.6325 µM) was 0.739. For the same compound, the relative viability ([10]; first compound 2 µM) was 0.368, the relative viability ([11]; first compound 0.02 µM) was 1.05 and the relative viability ([11]; first compound 0.2 µM) was 0.908. For the same compound, the relative viability ([11]; first compound 0.6325 µM) was 0.938, the relative viability ([11]; first compound 2 µM) was 0.916 and the relative viability ([12]; first compound 0.02 µM) was 0.852. The relative viability ([12]; first compound 0.6325 µM) was 0.805, the relative viability ([12]; first compound 2 µM) was 0.605 and the relative viability ([13]; first compound 0.02 µM) was 1.12. It also gave a relative viability ([13]; first compound 0.2 µM) of 1.02, a relative viability ([13]; first compound 0.6325 µM) of 1.33 and a relative viability ([13]; first compound 2 µM) of 1.18. It also gave a relative viability ([14]; first compound 0.02 µM) of 1.09, a relative viability ([14]; first compound 0.2 µM) of 1.09 and a relative viability ([14]; first compound 0.6325 µM) of 1.07. The relative viability ([14]; first compound 2 µM) was 0.99, the relative viability ([15]; first compound 0.02 µM) was 0.997 and the relative viability ([15]; first compound 0.2 µM) was 1.14. It also gave a relative viability ([15]; first compound 0.6325 µM) of 1.04, a relative viability ([15]; first compound 2 µM) of 1.12 and a relative viability ([16]; first compound 0.02 µM) of 0.868. The relative viability ([16]; first compound 0.6325 µM) was 0.935, the relative viability ([16]; first compound 2 µM) was 0.549 and the relative viability ([17]; first compound 0.02 µM) was 0.753. For the same compound, the relative viability ([17]; first compound 0.6325 µM) was 0.707, the relative viability ([17]; first compound 2 µM) was 0.476 and the relative viability ([18]; first compound 0.02 µM) was 1.08. For the same compound, the relative viability ([18]; first compound 0.2 µM) was 0.975, the relative viability ([18]; first compound 0.6325 µM) was 0.998 and the relative viability ([18]; first compound 2 µM) was 1.01. The relative viability ([19]; first compound 0.02 µM) was 1.04, the relative viability ([19]; first compound 0.2 µM) was 0.836 and the relative viability ([19]; first compound 0.6325 µM) was 1.27. It also gave a relative viability ([19]; first compound 2 µM) of 1.14, a relative viability ([20]; first compound 0.02 µM) of 0.761 and a relative viability ([20]; first compound 0.6325 µM) of 0.611. It also gave a relative viability ([20]; first compound 2 µM) of 0.523, a relative viability ([21]; first compound 0.02 µM) of 0.78 and a relative viability ([21]; first compound 0.2 µM) of 0.737. For the same compound, the relative viability ([21]; first compound 0.6325 µM) was 0.919, the relative viability ([21]; first compound 2 µM) was 0.776 and the relative viability ([22]; first compound 0.02 µM) was 1.02. It also gave a relative viability ([22]; first compound 0.2 µM) of 0.948, a relative viability ([22]; first compound 0.6325 µM) of 0.993 and a relative viability ([22]; first compound 2 µM) of 0.45. The relative viability ([23]; first compound 0.02 µM) was 0.844, the relative viability ([23]; first compound 0.2 µM) was 0.561 and the relative viability ([23]; first compound 0.6325 µM) was 0.908. The relative viability ([23]; first compound 2 µM) was 0.657.

Source: the supplement of paper PMC10307832
